Test results taken from ChEMBL document CHEMBL1201862, “PubChem BioAssay data set” (2004).
The source made the active and inactive calls.

Tests used:
[1] = target: Luciferin 4-monooxygenase (Photinus pyralis, UniProt P08659); assay: firefly luciferase enzyme inhibitors, dose response, biochemical, luminescence (AID 1891)
[2] = Luminescence Cell-Based Dose Confirmation HTS to Identify Inhibitors of Platelet Dense Granule Release. [Related pubchem assays: 1663 (Primary HTS), 1678 (Summary of Project)]; format: functional
[3] = Fluorescence Cell-Based Dose Response to Identify Inhibitors of Thrombin Receptor-Activating Peptide SFLLRN-Mediated P-Selectin Induction on Platelets. [Related pubchem assays: 1663 (Primary HTS), 1889 (retest at dose ), 1891 (counterscreen), 1678 (Project Summary)]; format: functional
Aminopeptidase N = target: T1, Aminopeptidase N (Plasmodium falciparum FcB1/Columbia, UniProt O96935); assay: P. falciparum M1AAP inhibitors, biochemical, fluorogenic H-Leu-NHMec substrate, 1536-well (AID 1445); design: species or system Plasmodium falciparum 3D7, 3D7
T1 sequence (O96935 whole entry): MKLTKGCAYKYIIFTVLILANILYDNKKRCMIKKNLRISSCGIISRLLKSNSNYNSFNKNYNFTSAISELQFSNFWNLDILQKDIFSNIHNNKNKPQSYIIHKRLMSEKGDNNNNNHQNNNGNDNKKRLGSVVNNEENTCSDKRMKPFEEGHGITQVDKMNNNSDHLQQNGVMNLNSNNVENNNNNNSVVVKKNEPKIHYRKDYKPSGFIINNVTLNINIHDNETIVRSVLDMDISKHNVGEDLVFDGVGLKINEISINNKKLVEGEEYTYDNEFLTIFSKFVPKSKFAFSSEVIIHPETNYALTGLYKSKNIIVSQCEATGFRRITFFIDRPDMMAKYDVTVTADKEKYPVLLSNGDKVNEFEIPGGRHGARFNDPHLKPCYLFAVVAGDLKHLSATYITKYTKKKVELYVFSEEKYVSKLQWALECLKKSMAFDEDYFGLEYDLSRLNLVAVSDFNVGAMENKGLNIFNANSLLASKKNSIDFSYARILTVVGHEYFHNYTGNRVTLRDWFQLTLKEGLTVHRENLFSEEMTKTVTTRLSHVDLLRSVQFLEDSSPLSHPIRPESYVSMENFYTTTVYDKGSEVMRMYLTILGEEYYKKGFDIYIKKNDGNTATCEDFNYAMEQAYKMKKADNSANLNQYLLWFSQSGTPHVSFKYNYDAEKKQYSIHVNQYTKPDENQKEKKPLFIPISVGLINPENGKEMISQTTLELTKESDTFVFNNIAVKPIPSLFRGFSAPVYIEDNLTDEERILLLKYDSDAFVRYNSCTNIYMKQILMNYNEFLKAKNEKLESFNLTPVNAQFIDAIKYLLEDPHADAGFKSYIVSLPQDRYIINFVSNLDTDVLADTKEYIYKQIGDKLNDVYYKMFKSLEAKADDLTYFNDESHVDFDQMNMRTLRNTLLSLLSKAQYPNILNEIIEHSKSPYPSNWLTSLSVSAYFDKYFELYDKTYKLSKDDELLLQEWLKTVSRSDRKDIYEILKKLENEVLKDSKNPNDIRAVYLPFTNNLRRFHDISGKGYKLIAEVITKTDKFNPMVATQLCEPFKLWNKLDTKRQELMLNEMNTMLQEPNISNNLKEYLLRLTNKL

SUMO-activating enzyme [4] = target: T2, SUMO-activating enzyme (Homo sapiens, UniProt Q9UBT2); assay: SUMOylation inhibitor hit validation, confirmation, SUMOylation inhibitor project, biochemical, AlphaScreen (AID 2018); format: functional
SUMO-activating enzyme [5] = target: T2, SUMO-activating enzyme; assay: inhibitors of in vitro SUMOylation cascade, primary screen, biochemical, HTRF, uHTS (AID 2006); format: protein-complex assay
[6] = target: Heat shock protein HSP 90-alpha (Homo sapiens, UniProt P07900); assay: Luminescence-based dose response biochemical high throughput screening assay for inhibitors of the Heat Shock Protein 90 (HSP90). [Related pubchem assays: 1831 (Summary AID.), 1846 (Confirmation screen.), 1789 (Primary screen.)]
SUMO E1/E2 = SUMO E1/E2 (Homo sapiens, UniProt P63279+Q9UBE0+Q9UBT2); assay: SAR analysis of SUMOylation using HTRF in an in-Vitro dose response assay. [Related pubchem assays (depositor defined):AID2006, AID2011, AID2018, AID2069, AID2658]; format: functional
[7] = target: T3, Tyrosyl-DNA phosphodiesterase 2 (Homo sapiens, UniProt O95551); assay: human TDP2 enzyme inhibitors, dose response, biochemical, epi absorbance, IC50 (AID 743297)
T3 sequence (O95551 whole entry): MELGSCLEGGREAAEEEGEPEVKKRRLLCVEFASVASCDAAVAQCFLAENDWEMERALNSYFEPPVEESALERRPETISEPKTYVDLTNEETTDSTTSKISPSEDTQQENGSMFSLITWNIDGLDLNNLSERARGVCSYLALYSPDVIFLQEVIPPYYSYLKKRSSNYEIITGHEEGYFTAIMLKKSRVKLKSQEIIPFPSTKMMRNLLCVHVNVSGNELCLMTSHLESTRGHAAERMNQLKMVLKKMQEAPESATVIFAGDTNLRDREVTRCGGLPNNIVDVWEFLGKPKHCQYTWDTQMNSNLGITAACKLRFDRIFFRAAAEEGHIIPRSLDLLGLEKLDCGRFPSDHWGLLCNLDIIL

[8] = target: Dual specificity protein phosphatase 6 (Rattus norvegicus, UniProt Q64346); assay: MKP-3 phosphatase inhibitors, primary screen, biochemical, rat enzyme, in vitro (AID 425)
[9] = target: Diphosphomevalonate decarboxylase (Streptococcus pneumoniae serotype 2 (strain D39 / NCTC 7466), UniProt Q9FD53); assay: S. pneumoniae DPM-DC inhibition retest, confirmation, biochemical, cuvette format, coupled NADH fluorescence (AID 1028); format: functional
[10] = target: Peroxisome proliferator-activated receptor gamma/Nuclear receptor corepressor 2 (Homo sapiens, UniProt P37231+Q9Y618); assay: Counterscreen for NR2E3 inverse agonists: TR-FRET-based biochemical high throughput dose response assay to identify inverse agonists of the interaction between peroxisome proliferator-activated receptor gamma (PPARg) and nuclear receptor co-repressor 2 (NCOR2).; format: functional
[11] = target: Photoreceptor-specific nuclear receptor (Homo sapiens, UniProt Q9Y5X4); assay: NR2E3 inverse agonists, dose response, biochemical, TR-FRET (AID 463256); format: functional
[12] = target: E3 ubiquitin-protein ligase Mdm2 (Homo sapiens, UniProt Q00987); assay: enhancers of MDM2-luciferase reporter signal, concentration-effect titration, project on inhibitors of MDM2 ubiquitin ligase, cellular assay, luminescent readout, 384-well plate format (AID 1394); format: functional;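 also: MDM2 E3 inhibitors raise luminescence so EC50 is for signal enhancement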
Prothrombin = Prothrombin (Homo sapiens, UniProt P00734); assay: Thrombin 1536 HTS Dose Response Confirmation. [Related pubchem assays: 1046 (Thrombin 1536 HTS; hits were confirmed in this assay)]; format: functional
[13] = target: Mitogen-activated protein kinase 10 (Homo sapiens, UniProt P53779); assay: Dose response biochemical screening assay for inhibitors of c-Jun N-Terminal Kinase 3 (JNK3). [Related pubchem assays: 746 ]
Danio rerio = assay: In Vivo Angiogenesis Dose-Response Confirmation. [Related pubchem assays: 732 (Assay preceding this confirmatory assay.)]; format: functional, organism-based
[14] = HeLa 2N DNA content increase, dose response, cell-based, IC50 (AID 1117349); format: functional
[15] = Concentration-dependent survival of SW480 colon cancer line, luminescence detection with CellTiter-Glo, half-maximal inhibitory concentration (AID 1117338); format: functional
[16] = RKO cell viability reduction, dose response, CellTiter-Glo luminescence (AID 1117322); format: functional
[17] = cytotoxicity toward HCT116 cells – cell-based, CellTiter-Glo luminescence, IC50, dose response (AID 1117332); format: functional; settings: HCT-116
[18] = SNU-C1 cell viability reduction, dose response, CellTiter-Glo luminescence (AID 1117323); format: functional, cell-based
[19] = cytotoxicity toward Colo320 cells – cell-based, CellTiter-Glo luminescence, IC50, dose response (AID 1117334); format: functional; settings: COLO 320
[20] = HeLa 4N DNA content increase, dose response, cell-based, IC50 (AID 1117351); format: functional
[21] = cytotoxicity toward HT-29 cells – cell-based, CellTiter-Glo luminescence, IC50, dose response (AID 1117330); format: functional
[22] = CellTiter-Glo luminescent dose response of DLD-1 viability loss (AID 1117352); format: functional

T2 sequence (Q9UBE0 whole entry): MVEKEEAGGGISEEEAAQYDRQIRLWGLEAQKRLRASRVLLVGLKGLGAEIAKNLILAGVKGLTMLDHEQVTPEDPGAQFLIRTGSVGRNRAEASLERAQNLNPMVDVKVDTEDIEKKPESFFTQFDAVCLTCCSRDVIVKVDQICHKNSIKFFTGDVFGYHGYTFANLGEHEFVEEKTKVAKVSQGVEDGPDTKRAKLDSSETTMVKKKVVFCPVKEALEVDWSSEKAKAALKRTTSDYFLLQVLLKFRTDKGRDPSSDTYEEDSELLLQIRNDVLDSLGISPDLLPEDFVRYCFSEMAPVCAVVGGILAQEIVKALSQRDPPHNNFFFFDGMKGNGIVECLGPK
T2 sequence (Q9UBT2 whole entry): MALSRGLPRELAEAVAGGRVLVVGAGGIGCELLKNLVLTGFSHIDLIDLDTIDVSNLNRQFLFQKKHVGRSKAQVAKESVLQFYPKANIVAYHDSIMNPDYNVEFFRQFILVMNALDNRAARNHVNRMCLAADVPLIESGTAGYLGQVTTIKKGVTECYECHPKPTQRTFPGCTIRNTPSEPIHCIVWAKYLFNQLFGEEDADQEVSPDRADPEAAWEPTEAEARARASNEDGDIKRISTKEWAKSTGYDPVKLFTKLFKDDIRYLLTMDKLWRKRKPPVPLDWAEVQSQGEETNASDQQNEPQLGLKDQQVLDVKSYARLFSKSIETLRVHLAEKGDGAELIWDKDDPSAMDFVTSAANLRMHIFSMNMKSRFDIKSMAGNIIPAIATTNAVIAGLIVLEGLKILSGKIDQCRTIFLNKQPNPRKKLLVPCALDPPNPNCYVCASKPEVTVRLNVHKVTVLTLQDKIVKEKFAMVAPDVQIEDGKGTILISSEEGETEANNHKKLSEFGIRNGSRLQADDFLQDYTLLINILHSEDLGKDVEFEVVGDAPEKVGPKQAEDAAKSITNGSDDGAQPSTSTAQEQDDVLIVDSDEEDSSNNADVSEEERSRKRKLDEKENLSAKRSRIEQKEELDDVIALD
Sequence of Diphosphomevalonate decarboxylase (Q9FD53 whole entry): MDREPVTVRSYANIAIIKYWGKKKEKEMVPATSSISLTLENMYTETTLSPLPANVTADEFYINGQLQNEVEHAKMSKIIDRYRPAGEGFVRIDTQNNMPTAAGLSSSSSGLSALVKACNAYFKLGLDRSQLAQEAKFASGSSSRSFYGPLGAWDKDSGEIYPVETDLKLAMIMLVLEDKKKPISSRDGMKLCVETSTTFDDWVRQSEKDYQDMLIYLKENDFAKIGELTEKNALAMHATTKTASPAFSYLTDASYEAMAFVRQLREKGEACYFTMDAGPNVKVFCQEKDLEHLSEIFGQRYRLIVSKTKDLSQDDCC
Sequence of Peroxisome proliferator-activated receptor gamma/Nuclear receptor corepressor 2 (P37231 whole entry): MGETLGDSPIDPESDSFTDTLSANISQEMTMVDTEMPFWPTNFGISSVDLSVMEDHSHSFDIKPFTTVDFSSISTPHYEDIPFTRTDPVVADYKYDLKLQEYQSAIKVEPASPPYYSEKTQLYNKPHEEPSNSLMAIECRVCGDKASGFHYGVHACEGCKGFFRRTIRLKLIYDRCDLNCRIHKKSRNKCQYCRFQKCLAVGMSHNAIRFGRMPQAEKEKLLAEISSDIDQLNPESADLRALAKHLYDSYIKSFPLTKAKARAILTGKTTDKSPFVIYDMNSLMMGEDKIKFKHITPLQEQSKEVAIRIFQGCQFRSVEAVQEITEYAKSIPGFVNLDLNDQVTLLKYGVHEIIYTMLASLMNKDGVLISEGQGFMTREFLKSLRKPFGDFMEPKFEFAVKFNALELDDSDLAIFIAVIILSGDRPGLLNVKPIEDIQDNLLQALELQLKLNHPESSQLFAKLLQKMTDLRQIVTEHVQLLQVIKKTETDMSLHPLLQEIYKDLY
Sequence of Peroxisome proliferator-activated receptor gamma/Nuclear receptor corepressor 2 (Q9Y618 whole entry): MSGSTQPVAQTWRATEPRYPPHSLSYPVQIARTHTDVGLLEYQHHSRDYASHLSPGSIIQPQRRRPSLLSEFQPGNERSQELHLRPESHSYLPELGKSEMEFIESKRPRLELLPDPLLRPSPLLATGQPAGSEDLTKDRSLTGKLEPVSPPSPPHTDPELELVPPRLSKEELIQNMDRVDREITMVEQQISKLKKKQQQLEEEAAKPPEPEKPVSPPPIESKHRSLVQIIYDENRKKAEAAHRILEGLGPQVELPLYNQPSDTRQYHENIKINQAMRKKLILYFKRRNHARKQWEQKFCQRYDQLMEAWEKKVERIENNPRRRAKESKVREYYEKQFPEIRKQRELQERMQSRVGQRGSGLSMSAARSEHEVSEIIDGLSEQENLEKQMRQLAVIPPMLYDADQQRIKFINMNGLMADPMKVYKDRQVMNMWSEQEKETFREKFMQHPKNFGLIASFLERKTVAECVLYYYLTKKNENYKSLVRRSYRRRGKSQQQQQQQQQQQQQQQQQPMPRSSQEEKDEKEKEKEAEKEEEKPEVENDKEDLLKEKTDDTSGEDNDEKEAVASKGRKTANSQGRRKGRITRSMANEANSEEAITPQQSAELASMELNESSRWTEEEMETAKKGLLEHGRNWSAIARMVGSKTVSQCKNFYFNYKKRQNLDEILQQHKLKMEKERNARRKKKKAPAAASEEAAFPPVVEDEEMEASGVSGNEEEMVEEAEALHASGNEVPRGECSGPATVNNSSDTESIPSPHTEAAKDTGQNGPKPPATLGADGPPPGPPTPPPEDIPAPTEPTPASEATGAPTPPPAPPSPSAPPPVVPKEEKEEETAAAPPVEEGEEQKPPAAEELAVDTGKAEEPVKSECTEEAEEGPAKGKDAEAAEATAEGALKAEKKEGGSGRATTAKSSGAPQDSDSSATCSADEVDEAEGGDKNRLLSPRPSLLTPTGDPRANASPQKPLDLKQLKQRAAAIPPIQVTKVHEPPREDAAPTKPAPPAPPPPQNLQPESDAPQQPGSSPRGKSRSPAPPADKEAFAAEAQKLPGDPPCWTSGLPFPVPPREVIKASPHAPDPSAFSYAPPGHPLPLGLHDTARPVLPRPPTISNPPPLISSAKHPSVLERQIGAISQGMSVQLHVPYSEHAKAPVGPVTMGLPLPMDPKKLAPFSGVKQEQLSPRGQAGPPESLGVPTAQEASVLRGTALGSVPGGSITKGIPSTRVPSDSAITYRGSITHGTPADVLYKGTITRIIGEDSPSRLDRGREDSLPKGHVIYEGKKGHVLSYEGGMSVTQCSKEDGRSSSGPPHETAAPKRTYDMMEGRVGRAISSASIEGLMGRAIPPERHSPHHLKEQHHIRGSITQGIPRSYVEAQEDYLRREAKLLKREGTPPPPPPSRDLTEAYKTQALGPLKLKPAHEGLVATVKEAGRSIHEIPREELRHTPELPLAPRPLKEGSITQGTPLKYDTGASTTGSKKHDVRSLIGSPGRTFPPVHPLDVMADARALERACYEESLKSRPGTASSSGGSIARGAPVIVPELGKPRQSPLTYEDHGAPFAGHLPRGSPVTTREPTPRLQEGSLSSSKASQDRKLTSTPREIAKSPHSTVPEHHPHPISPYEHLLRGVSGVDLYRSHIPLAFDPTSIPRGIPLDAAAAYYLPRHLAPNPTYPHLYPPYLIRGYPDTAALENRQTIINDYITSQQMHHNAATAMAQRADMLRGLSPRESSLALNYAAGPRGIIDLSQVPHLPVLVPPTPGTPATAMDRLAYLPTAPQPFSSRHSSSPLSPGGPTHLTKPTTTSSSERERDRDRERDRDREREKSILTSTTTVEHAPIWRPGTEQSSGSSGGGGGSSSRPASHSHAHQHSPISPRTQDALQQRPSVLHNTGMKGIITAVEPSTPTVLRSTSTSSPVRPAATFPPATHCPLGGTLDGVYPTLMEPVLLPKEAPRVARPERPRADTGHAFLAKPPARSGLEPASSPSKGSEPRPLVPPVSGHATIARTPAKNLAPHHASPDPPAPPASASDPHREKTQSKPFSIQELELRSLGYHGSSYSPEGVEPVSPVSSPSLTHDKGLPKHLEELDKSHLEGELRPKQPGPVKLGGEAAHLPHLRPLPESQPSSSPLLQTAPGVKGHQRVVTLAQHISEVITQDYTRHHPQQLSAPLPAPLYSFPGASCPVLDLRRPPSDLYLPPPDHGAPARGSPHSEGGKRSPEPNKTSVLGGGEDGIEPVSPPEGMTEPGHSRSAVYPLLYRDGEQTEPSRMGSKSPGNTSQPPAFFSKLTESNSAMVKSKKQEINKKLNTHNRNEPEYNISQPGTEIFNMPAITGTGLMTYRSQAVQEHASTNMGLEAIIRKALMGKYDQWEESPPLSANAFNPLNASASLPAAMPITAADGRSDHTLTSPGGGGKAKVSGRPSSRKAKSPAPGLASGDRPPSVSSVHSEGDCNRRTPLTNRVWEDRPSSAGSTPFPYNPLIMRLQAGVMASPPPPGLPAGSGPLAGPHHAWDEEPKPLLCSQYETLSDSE
Sequence of Mitogen-activated protein kinase 10 (P53779 whole entry): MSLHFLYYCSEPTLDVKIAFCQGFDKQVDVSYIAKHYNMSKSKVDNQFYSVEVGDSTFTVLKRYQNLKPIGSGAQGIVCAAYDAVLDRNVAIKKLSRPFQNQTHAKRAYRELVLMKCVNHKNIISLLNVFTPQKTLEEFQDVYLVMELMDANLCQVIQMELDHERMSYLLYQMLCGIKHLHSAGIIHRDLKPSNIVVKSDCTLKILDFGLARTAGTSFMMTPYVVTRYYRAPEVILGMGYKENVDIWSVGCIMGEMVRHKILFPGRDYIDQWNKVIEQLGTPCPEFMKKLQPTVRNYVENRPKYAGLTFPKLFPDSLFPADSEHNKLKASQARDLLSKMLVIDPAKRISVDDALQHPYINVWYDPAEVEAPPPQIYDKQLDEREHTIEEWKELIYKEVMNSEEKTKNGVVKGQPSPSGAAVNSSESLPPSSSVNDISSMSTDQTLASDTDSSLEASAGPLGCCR
Sequence of SUMO E1/E2 (Q9UBE0 whole entry): as the sequence (Q9UBE0 whole entry) above
Sequence of SUMO E1/E2 (Q9UBT2 whole entry): as the sequence (Q9UBT2 whole entry) above
Sequence of SUMO E1/E2 (P63279 whole entry): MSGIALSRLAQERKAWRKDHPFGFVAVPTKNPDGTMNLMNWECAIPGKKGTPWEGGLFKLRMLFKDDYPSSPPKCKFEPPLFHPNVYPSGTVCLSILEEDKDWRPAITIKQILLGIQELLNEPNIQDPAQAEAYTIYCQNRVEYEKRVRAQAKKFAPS

Cc1nc(O)c(C#N)c(C)c1CSc1ncccn1
EC50 [1]: > 112 µM (not active) | EC50 [2]: 3.68 µM (active) | EC50 [3]: < 1 µM (active)

C=CCn1c(NS(=O)(=O)c2ccccc2)c(S(=O)(=O)c2ccc(C)cc2)c2nc3ccccc3nc21
IC50 (Aminopeptidase N): 36.2 µM (active) | IC50 (SUMO-activating enzyme [4]): 0.88 µM (active) | IC50 (SUMO-activating enzyme [5]): 1.5 µM (active) | IC50 [6]: 1.61 µM (active) | IC50 (SUMO E1/E2): 4.29 µM (active) | IC50 [7]: 68.1 µM (inactive)

CCN(CC)CCCN1C(=O)C(O)=C(C(=O)c2ccccc2)C1c1ccccn1 (stereo unspecified)
IC50 [8]: > 100 µM (not active)

Cc1ccc(-n2sc3ccccc3c2=O)cc1S(=O)(=O)N1CCCC1
IC50 [9]: 4.15 µM (active)

CC(=O)Nc1cccc(Oc2nc(C(F)(F)F)nc3ccccc23)c1
IC50 [10]: > 39.8 µM (not active) | IC50 [11]: 18.7 µM (not active)

COc1ccc(-c2nc(C)c(C(C)=O)n2O)cc1
EC50 [12]: 12.3 µM (not active)

Cc1ccc2c(c1)CC1(CN2C)C(=O)OC2(CCCCC2)OC1=O
IC50 (Prothrombin): 4.14 µM (active) | IC50 [13]: > 93.1 µM (not active)

Fc1ccc(C(OCCN2CCN(CCCc3ccccc3)CC2)c2ccc(F)cc2)cc1
IC50 (Danio rerio): 5.73 µM (not active) | IC50 [14]: > 10 µM (inactive) | IC50 [15]: 2.07 µM (active) | IC50 [16]: 0.113 µM (active) | IC50 [17]: 4.87 µM (active) | IC50 [18]: 1.82 µM (active) | IC50 [19]: > 20 µM (inactive) | IC50 [20]: > 10 µM (inactive) | IC50 [21]: 1.49 µM (active) | IC50 [22]: 0.903 µM (active)
